{
  "source": "patent US6699686B1",
  "about": "“Modified nuclear glucocorticoid receptor, fusion protein, and DNA fragments coding for said receptor and said fusion protein” (Association pour le Development de la Recherche en …, priority 1996, dated 2004)",
  "key": {"[1]": {"target": "T1, Cre-LBD[GR(I747/T)] (Homo sapiens, UniProt P04150, I747T)", "T1 construct": "the region containing the mutated LBD of HG1 [aa 500-777]; Cre recombinase aa 1-343 (bacteriophage P1); F region of the human estrogen receptor (aa 553-595); expressed in transfected cells", "T1 sequence (P04150 500-777 I747T)": "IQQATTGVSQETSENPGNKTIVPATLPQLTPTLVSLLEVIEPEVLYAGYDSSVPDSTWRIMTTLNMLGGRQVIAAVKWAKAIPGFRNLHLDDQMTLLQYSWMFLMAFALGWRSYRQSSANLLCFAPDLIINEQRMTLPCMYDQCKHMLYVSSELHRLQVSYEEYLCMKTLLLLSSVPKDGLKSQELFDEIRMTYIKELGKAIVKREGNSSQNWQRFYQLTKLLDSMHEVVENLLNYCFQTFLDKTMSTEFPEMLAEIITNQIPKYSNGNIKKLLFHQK", "assay": "PCR analysis of recombinase activity in RXRα+/−(LNL):Cre-GR(I747/T) line constitutively expressing the chimeric protein", "type": "cell-based", "conditions": "for recombinase activity: ligand concentration ranging from 10^−9 to 10^−6 M; for recombinase activity (191 bp PCR fragment of recombinant allele): ligand 10^−6 M, 72 hours, expression cassette integrated into the genome", "experimental": "The resistant clones were obtained according to the procedure described by Metzger et al. (28).\n(§1) The DNA amplifications were carried out using the “Polymerase Chain Reaction” (PCR) technique according to the protocol described by Chen and Evans (60). The primers used are: SB211 and PZ105, having respectively as nucleotide sequence 5′-[…]-3′ (SEQ ID NO: 10) and 5′-[…]-3′ (SEQ ID NO: 11). After denaturation for 8 min at 94° C., 2.5 units of Taq polymerase are added. The amplification is carried out by performing 35 cycles (30 sec. at 94° C., 30 sec. at 50° C.) followed by one cycle (30 sec. at 94° C., 30 sec. at 50° C., 5 min at 72° C.), the product of which is stored at 4° C.\n(§2) The products of the reactions were separated on polyacrylamide (10%) or agarose (2.5%) gel. The DNA was visualized by UV followed by ethidium bromide staining, or by Southern blotting (42).\nThe amplified DNA was separated on acrylamide gel and stained with ethidium bromide. Lanes 1, 2, 3 and 4 contain respectively the PCR products produced with DNA extracted from wild-type (WT) F9 cells, RXRα^+/−(LNL), RXRα^+/−(L) cells and C2RXRα^+(L)/−(L) cells (73). Lane 8 contains a size marker (1 kb ladder; GibcoBRL).\nThe amplified DNA was separated on agarose gel and analyzed according to the Southern technique. The amplified fragments corresponding to the wild-type and recombinant alleles were detected by hybridization with the aid of the synthetic oligonucleotide (5′-[…]-3′) (SEQ ID NO: 12), radiolabeled at the 5′ end with T4 polynucleotide kinase. The signal was visualited and quantified with the aid of a “phosphoimager” (Fujix bas2000).\nThe recombinant allele was detected according to the procedure described in FIG. 8. The amplified DNA was separated on agarose gel and analyzed according to the Southern technique. The amplified fragments corresponding to the recombinant allele were detected by autoradiography following hybridization with the synthetic oligonucleotide 5′-[…]-3′ (SEQ ID NO: 13), (containing a loxP site) radiolabeled with Phosphorus^32 at the 5′ end by T4 polynucleotide kinase.\nThe recombinase activity was tested following a treatment of these cells with Dex (10^−6 M) for 72 hours."}, "[2]": {"target": "T1, Cre-LBD[GR(I747/T)]", "assay": "PCR test of excision between loxP sites after transient transfection of pCre-LBD[GR(I747/T)] in RXRα+/−(LNL) F9 cells", "type": "cell-based", "conditions": "ligand 10^−6 M, 72 hours, murine F9 RXRα+/−(LNL) cells", "experimental": "[optionally cotransfected with 5 μg of the vector pRXRα^(LNL) for the HeLa cells] with the aid of an electroporator (Bio-Rad gene pulser), set at 200 V and 960 μF. The cells were then inoculated at 10^6 cells per 100 mm dish and treated, if necessary, with ligands.\nas §1, §2\nThe products of the reaction were separated on acrylamide gel and stained with ethidium bromide."}},
  "data": [
    {"smiles": "C[C@]12CCC(=O)C=C1CC[C@@H]1[C@@H]2[C@@H](O)C[C@]2(C=O)[C@@H](C(=O)CO)CC[C@@H]12", "note": "[Aldosterone, aldosterone]", "values": [
      {"measurement": "recombinase activity", "setting": "[1]", "result": "No recombinase activity"}
    ]},
    {"smiles": "C[C@]12CCC(=O)C=C1CC[C@@H]1[C@@H]2[C@@H](O)C[C@@]2(C)[C@H]1CC[C@]2(O)C(=O)CO", "note": "[Cortisol, cortisol]", "values": [
      {"measurement": "excision of sequences between loxP sites (191 bp PCR fragment of recombinant allele)", "setting": "[2]", "result": "no fragment of this size is observed"},
      {"measurement": "recombinase activity (191 bp PCR fragment of recombinant allele)", "setting": "[1]", "result": "inactive"},
      {"measurement": "recombinase activity", "setting": "[1]", "result": "No recombinase activity"}
    ]},
    {"smiles": "C[C@]12C[C@H](O)[C@H]3[C@@H](CCC4=CC(=O)CC[C@@]43C)[C@@H]1CC[C@@H]2C(=O)CO", "note": "[Corticosterone, corticosterone]", "values": [
      {"measurement": "recombinase activity", "setting": "[1]", "result": "No recombinase activity"}
    ]},
    {"smiles": "C[C@@H]1C[C@H]2[C@@H]3CCC4=CC(=O)C=C[C@]4(C)[C@@]3(F)[C@@H](O)C[C@]2(C)[C@@]1(O)C(=O)CO", "note": "[Dexamethasone, dexamethasone]", "values": [
      {"measurement": "recombinase activity (191 bp PCR fragment of recombinant allele)", "setting": "[1]; listed as Dex", "result": "active"}
    ]}
  ]
}
